The text below walks through data of PubChem BioAssay AID1259411 (Chemical Carcinogenesis Research Information System (CCRIS), 2018).

The structures appear in SMILES notation. Entries after “also recorded” stand apart in the source; their conditions may differ. Calls of active or inactive are those of the source. No rule for the calls is given here.

This data set relates to rodent carcinogenicity bioassays, tumor incidence. Briefly: CCRIS carcinogenicity studies. In short, it runs like this:
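Archive of carcinogenicity, mutagenicity, tumor promotion and tumor inhibition results drawn from journals, NCI reports and other sources, expert-reviewed; covers 1985-2011 and is no longer updated.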

Take `Cn1c(N)nc2c3cccnc3ccc21`: the carcinogen call is “active; positive” (Species: MONKEY, Strain/Sex: MACAQUE/MALE,FEMALE, Route: GAVAGE, Dose: 0, 10, 20 MG/KG 5/D/WK FOR DURATION OF STUDY (STUDY DURATION: 91 MO), Dose: 0, 10, 20 MG/KG 5/D/WK FOR DURATION OF STUDY (STUDY DURATION: 91 MO), Tumor Site: Type of Lesion: LIVER: HEPATOCELLULAR CARCINOMA); “active; positive” (Species: MOUSE, Strain/Sex: B6C3F1/MALE, Route: INTRAPERITONEAL, Dose: 0, 0.625 UMOL IN 35 µL DMSO ON D 1, 8, AND 15 AFTER BIRTH (STUDY DURATION: 8 MO), Tumor Site: Type of Lesion: LIVER: HEPATOCELLULAR ADENOMA); “active; positive” (Species: MOUSE, Strain/Sex: B6C3F1/MALE, Route: INTRAPERITONEAL, Dose: 0, 0.625 UMOL IN 35 µL DMSO ON D 1, 8, AND 15 AFTER BIRTH (STUDY DURATION: 12 MO), Tumor Site: Type of Lesion: LIVER: HEPATOCELLULAR ADENOMA); “active; positive” (Species: MOUSE, Strain/Sex: B6C3F1/MALE, Route: INTRAPERITONEAL, Dose: 0, 1.25 UMOL IN 35 µL DMSO ON D 1, 8, AND 15 AFTER BIRTH (STUDY DURATION: 8 MO), Tumor Site: Type of Lesion: LIVER: HEPATOCELLULAR ADENOMA); “active; positive” (Species: MOUSE, Strain/Sex: B6C3F1/MALE, Route: INTRAPERITONEAL, Dose: 0, 1.25 UMOL IN 35 µL DMSO ON D 1, 8, AND 15 AFTER BIRTH (STUDY DURATION: 12 MO), Tumor Site: Type of Lesion: LIVER: HEPATOCELLULAR ADENOMA, HEPATOCELLULAR CARCINOMA); “active; positive” (Species: MOUSE, Strain/Sex: CD-1/FEMALE, Route: INTRAPERITONEAL, ORAL, Dose: 0, 5 µL OF A 14 MG/ML SOLUTION IN DMSO ON DAYS 1, 3, 5, 7, 10, 13, 17, 21, 24 AND 28 OF LIFE THEN 2/WK TO WK 10 FOLLOWED, Tumor Site: Type of Lesion: LIVER: CARCINOMA, LUNG: ADENOMA). The carcinogen call reads like this: (Species: MOUSE, Strain/Sex: CD-1/MALE, Route: INTRAPERITONEAL, ORAL, Dose: 0, 5 µL OF A 14 MG/ML SOLUTION IN DMSO ON DAYS 1, 3, 5, 7, 10, 13, 17, 21, 24 AND 28 OF LIFE THEN 2/WK TO WK 10 FOLLOWED, Tumor Site: Type of Lesion: LIVER: CARCINOMA) “active; positive”; (Species: MOUSE, Strain/Sex: CDF1/FEMALE, Route: ORAL, Dose: 0, 0.03% IN DIET FOR UP TO 675 D (STUDY DURATION: 675 D), Tumor Site: Type of Lesion: LIVER: HEPATOCELLULAR ADENOMA OR CARCINOMA OR HEMANGIOENDOTHELIOMA, FORESTOMACH: PAPILLOMA OR SQUAMOUS CELL CARCINOMA, L, Tumor Site: Type of Lesion: LIVER: HEPATOCELLULAR ADENOMA OR CARCINOMA OR HEMANGIOENDOTHELIOMA, FORESTOMACH: PAPILLOMA OR SQUAMOUS CELL CARCINOMA, L) “active; positive”; (Species: MOUSE, Strain/Sex: CDF1/MALE, Route: ORAL, Dose: 0, 0.03% IN DIET FOR UP TO 675 D (STUDY DURATION: 675 D), Tumor Site: Type of Lesion: LIVER: HEPATOCELLULAR ADENOMA OR CARCINOMA OR HEMANGIOENDOTHELIOMA, FORESTOMACH: PAPILLOMA OR SQUAMOUS CELL CARCINOMA, L, Tumor Site: Type of Lesion: LIVER: HEPATOCELLULAR ADENOMA OR CARCINOMA OR HEMANGIOENDOTHELIOMA, FORESTOMACH: PAPILLOMA OR SQUAMOUS CELL CARCINOMA, L) “active; positive”; (Species: MOUSE, Strain/Sex: EU-PIM-1/FEMALE, Route: ORAL, Dose: 0, 0.03% IN DIET FOR 24 WK (STUDY DURATION: 40 WK)) “inactive; negative”; (Species: MOUSE, Strain/Sex: EU-PIM-1/MALE, Route: ORAL, Dose: 0, 0.03% IN DIET FOR 24 WK (STUDY DURATION: 40 WK)) “inactive; negative”; (Species: MOUSE, Strain/Sex: NON-TRANSGENIC WILD-TYPE/FEMALE, Route: ORAL, Dose: 0, 0.03% IN DIET FOR 24 WK (STUDY DURATION: 40 WK)) “inactive; negative”. Moreover, the carcinogen call (Species: MOUSE, Strain/Sex: NON-TRANSGENIC WILD-TYPE/MALE, Route: ORAL, Dose: 0, 0.03% IN DIET FOR 24 WK (STUDY DURATION: 40 WK)) is “inactive; negative”; the carcinogen call (Species: MOUSE, Strain/Sex: SEVERE COMBINED IMMUNODEFICIENT/FEMALE, Route: ORAL, Dose: 0, 300 PPM IN THE DIET FOR 78 WK (STUDY DURATION: 78 WK), Tumor Site: Type of Lesion: LIVER: HEPATOCELLULAR CARCINOMA) is “active; positive”; the carcinogen call (Species: MOUSE, Strain/Sex: TRANSGENIC EU-PIM-1/FEMALE, Route: ORAL, Dose: 0, 0.03% IN DIET FOR 24 WK (STUDY DURATION: 40 WK)) is “inactive; negative”; the carcinogen call (Species: MOUSE, Strain/Sex: TRANSGENIC EU-PIM-1/MALE, Route: ORAL, Dose: 0, 0.03% IN DIET FOR 24 WK (STUDY DURATION: 40 WK)) was “inactive; negative”; the carcinogen call (Species: MOUSE, Strain/Sex: WILD-TYPE/FEMALE, Route: ORAL, Dose: 0, 0.03% IN DIET FOR 24 WK (STUDY DURATION: 40 WK)) is “inactive; negative”; the carcinogen call (Species: MOUSE, Strain/Sex: WILD-TYPE/MALE, Route: ORAL, Dose: 0, 0.03% IN DIET FOR 24 WK (STUDY DURATION: 40 WK)) is “inactive; negative”. Besides, the carcinogen call is, setting by setting: (Species: Mouse, Strain/Sex: Non transgenic rasH2 Wild-type/ Female (10/10)/(15/15), Route: Oral, Dose: 300 ppm in the diet starting at 7 weeks of age (Study duration: 26 weeks)) “inactive; negative: although only hyperplasia observed in wild-type mouse, forestomach pa”; (Species: Mouse, Strain/Sex: Non transgenic rasH2 Wild-type/ Male (10/10)/(15/15), Route: Oral, Dose: 300 ppm in the diet starting at 7 weeks of age (Study duration: 26 wks)) “inactive; negative; although only hyperplasia observed in wild-type mouse, forestomach pa”; (Species: Mouse, Strain/Sex: Parp-1+/+ C57BL/6/Male, Route: Oral, Dose: 300 ppm in diet for 60 wk, study duration 60 wk, Tumor Site: Type of Lesion: Spleen: Malignant lymphoma (3/18)) “active; positive (no lung adenomas or forestomach papillomas found). parp-1 deficiency (; also recorded: active; positive (however, no lung adenomas or forestomach papillomas found. parp-1 defi”; (Species: RAT, Strain/Sex: F344/MALE, Route: INTRARECTAL, Dose: 0, 50.5 MG/KG IN 1.7 ML/KG DMSO INFUSED 3/WK FOR 2 MO THEN 2/WK FOR DURATION OF STUDY (STUDY DURATION: 18 MO), Tumor Site: Type of Lesion: COLON: CARCINOMA, SKIN: SEBACEOUS SQUAMOUS CELL CARCINOMA) “active; positive”; (Species: RAT, Strain/Sex: SPRAGUE-DAWLEY/FEMALE, Route: GAVAGE, Dose: 0, 0.35 MMOL/KG BW IN 0.25 ML OF 5% EMULPHOR IN WATER 3/WK FOR WK 1-4 THEN 2/WK FOR WK 5-8 FOLLOWED BY 1/WK FOR 23 WK (S, Tumor Site: Type of Lesion: MAMMARY GLAND: CARCINOMA, LIVER: TUMOR, EAR DUCT: TUMOR, Tumor Site: Type of Lesion: MAMMARY GLAND: CARCINOMA, LIVER: TUMOR, EAR DUCT: TUMOR) “active; positive”; (Species: RAT, Strain/Sex: WISTAR/MALE, Route: INTRAGASTRIC, Dose: 0, 10 MG/KG IN ACIDIFIED WATER 1/D FOR 2 WK (STUDY DURATION: 58 WK)) “inactive; negative”.
